Test: Phase II AMX3500 (CENTAUR) sparse sampling: steady-state plasma concentrations of TURSO/TUDCA, UDCA, GUDCA in ALS patients
Type: in vivo, human
Conditions: patients; comparison across studies
Procedure: • 1. […] Treatment is administered as one sachet daily for the initial 3 weeks and then increased if tolerated to one sachet twice daily. […] Sampling times are randomly assigned to occur at either 1 or 4 hours post-dose at the 12 week visit and the other time at the 24 week visit. • Treatment duration: 24 weeks • 2.
• Protocol AMX3500: sparse sampling in 87 subjects with ALS. Approximately 2 samples are collected for each subject, 1 or 4 hours post dose following 12 and 24 weeks of treatment. • Protocol A35-002: rich sampling in 14 healthy adults. Approximately 21 samples are collected over 24 hours for each subject on two occasions, once following a high fat meal and the other under fasting conditions.
Subjects were advised to take the drug before a meal. […] Referred to as protocol 3500.
A study was carried out to examine plasma concentration data in various subgroups for the protocol AMX3500 Phase 2 study. This example summarizes plasma concentrations of TUDCA and 2 metabolites, also related acids, UDCA, the de-conjugated TUDCA metabolite, and GUDCA, the glycine conjugate of UDCA.
For each of the 2 treatment arms (treatment and placebo), subjects were further divided into 2 sample sequence groups for schedule of pharmacokinetic measurements: • 1. 1 hour post-dose for the Week 12 visit and 4 hours post-dose for the Week 24 visit • 2. 4 hours post-dose for the Week 12 visit and 1 hour post-dose for the Week 24 visit
Twenty-four distinct medication descriptions were identified as containing antibiotics. Dates of antibiotic use were compared to dates of visits and if the antibiotic use date range contained the visit date, then that visit was flagged for that subject's data for antibiotic use. […] These antibiotics could hypothetically be in a subject's body still if this event occurred. However, it was observed that only a small number of subjects took antibiotics near to visit dates but not overlapping visit dates. In other cases, subjects were taking antibiotics on the date of one visit but not the others. Some subjects are therefore in both categories of antibiotic use and nonuse, though no individual visits for a subject are counted in both categories at the same time.
Subjects whose race were recorded as “Black” or “African American” were evaluated according to the standard Glomerular Filtration Rate (eGFR) rating for that race. The other standard eGFR rating used, sometimes referred to as a standard for people who are White, was applied to subjects of all other races. These rates were analyzed as continuous in mL/min/1.73 m2 units and as the following categories: • 1. Less than 90 mL/min/1.73 m^2 • 2. Equal to or greater than 90 mL/min/1.73 m^2
Age was converted from a continuous variable to 2 categories: • 1. As old or older than 65 years old • 2. Younger than 65 years old
All boxplots boxes are bounded at the 25th and 75th percentile, with whiskers at 10th and 90th percentiles, outliers beyond that as points, the black line as median, and red line as mean.

In the case of O=C(O)Cc1ccccc1 [PAA, phenylacetate], the “accumulation in plasma after once- or twice-daily dosing” value is reported as “no accumulation”.

— patent US20230372263A1, “METHODS AND COMPOSITIONS FOR TREATING AMYOTROPHIC LATERAL SCLEROSIS” (Amylyx Pharmaceuticals, Inc., priority 2022, published 2023)
